Reference: US5891917A, “Certain acrylonitrile-sulfonamide derivatives” (Sugen, Inc., priority 1997, dated 1999)

Target: T1, FLK-1 receptor (Mus musculus, UniProt P35918)
T1 construct: expressed in transfected cells; host or cells: NIH3T3C7#3 cells (FLK-1 infected)
Experiment: ELISA assay to measure kinase activity of FLK-1 receptor in FLK-1/NIH cells
Assay type: cell-based, murine
Conditions: 50 ng/ml VEGF, read-out: ELISA DATA: FLK-1-(Cell.)
Excerpt: For purposes of this application, although the nomenclature of the human and murine counterparts of the generic "flk-I" receptor differ, they are, in many respects, interchangeable. The murine receptor, FLK1, and its human counterpart, KDR, share a sequence homology of 93.4% within the intracellular domain. Likewise, murine FLK-I binds human VEGF with the same affinity as mouse VEGF, and accordingly, is activated by the ligand derived from either species. Millauer et al., 1993, Cell 72:835-846; Quinn et al., 1993, Proc. Natl. Acad. Sci. USA 90:7533-7537. FLK-1 also associates with and subsequently tyrosine phosphorylates human RTK substrates (e.g., PLC-γ or p85) when coexpressed in 293 cells (human embryonal kidney fibroblasts).
ELISA Assay To Measure Kinase Activity Of FLK-I Receptor In FLK-I/NIH Cells
An ELISA assay was conducted to measure the kinase activity of the FLK-I receptor and more specifically, the inhibition or activiation of protein tyrosine kinase activity on the FLK-I receptor.
k. N1H3T3C7#3 Cells (FLK-I infected cells);
1. Coat Corning 96-well elisa plates with 1.0 ug per well Cappel Anti-rabbit IgG antibody in 0.1M Na2CO3 pH 9.6. Bring final volume to 150 ul per well. Coat plates overnight at 4° C. Plates can be kept up to two weeks when stored at 4° C.
2. […]

T1 sequence (P35918 20-1345): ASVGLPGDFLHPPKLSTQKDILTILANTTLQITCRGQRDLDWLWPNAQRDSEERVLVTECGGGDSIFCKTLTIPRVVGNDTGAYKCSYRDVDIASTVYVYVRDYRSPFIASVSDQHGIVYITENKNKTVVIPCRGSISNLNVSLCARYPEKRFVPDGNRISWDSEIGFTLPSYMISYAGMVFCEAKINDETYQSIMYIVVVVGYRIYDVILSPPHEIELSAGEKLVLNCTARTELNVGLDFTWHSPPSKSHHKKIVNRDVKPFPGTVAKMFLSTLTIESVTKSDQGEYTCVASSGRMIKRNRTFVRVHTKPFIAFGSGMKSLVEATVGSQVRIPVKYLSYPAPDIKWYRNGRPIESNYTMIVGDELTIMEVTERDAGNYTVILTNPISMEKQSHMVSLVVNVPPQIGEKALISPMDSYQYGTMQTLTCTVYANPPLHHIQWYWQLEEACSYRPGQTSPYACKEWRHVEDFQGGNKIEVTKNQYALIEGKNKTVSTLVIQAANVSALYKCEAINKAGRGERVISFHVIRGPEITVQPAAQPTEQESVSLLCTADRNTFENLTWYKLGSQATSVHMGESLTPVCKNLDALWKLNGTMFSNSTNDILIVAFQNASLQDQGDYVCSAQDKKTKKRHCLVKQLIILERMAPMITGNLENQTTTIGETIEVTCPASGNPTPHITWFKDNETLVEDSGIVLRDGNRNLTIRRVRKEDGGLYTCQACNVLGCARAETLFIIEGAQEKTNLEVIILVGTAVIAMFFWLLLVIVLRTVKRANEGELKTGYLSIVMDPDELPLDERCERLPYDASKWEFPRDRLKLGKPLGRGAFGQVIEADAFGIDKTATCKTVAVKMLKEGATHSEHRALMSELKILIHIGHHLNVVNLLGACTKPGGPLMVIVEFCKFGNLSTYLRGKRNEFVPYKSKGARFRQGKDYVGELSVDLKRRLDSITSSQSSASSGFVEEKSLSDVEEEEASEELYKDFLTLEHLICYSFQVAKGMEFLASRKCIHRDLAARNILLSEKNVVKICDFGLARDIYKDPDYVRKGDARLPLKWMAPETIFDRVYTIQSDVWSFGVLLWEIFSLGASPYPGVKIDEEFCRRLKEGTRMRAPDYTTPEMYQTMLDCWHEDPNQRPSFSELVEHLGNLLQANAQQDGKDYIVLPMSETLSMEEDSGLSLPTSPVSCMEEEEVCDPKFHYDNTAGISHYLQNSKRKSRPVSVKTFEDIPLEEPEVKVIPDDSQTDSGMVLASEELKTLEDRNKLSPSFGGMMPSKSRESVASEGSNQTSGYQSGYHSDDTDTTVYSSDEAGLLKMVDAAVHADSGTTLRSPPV

| IC50 [µM] | SMILES |
| --- | --- |
| > 50 | CC(C)c1cc(/C=C(\C#N)S(=O)(=O)c2ccccn2)cc(C(C)C)c1O [Compound 747] |
| < 50 | Cc1cc(/C=C(\C#N)S(=O)(=O)c2ccccc2)cc(C)c1O [Compound 748] |
